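Five compound concentrations were applied to cells in 96-well plates for 48 hours; endpoints were derived by simple linear interpolation of the resulting dose-response curve. TGI: concentration producing complete growth inhibition.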
Legend:
Test in all cases: NCI tumour cell line growth inhibition, 48 h
A498 renal = tested on: A498 renal
A549 NSCLC = tested on: A549 NSCLC
CAKI-1 renal = tested on: CAKI-1 renal
CCRF-CEM leukemia = tested on: CCRF-CEM leukemia
COLO 205 colon = tested on: COLO 205 colon
DLD-1 colon = tested on: DLD-1 colon
DMS 114 small cell lung = tested on: DMS 114 small cell lung
DMS 273 small cell lung = tested on: DMS 273 small cell lung
EKVX NSCLC = tested on: EKVX NSCLC
HCC-2998 colon = tested on: HCC-2998 colon
HCT-116 colon = tested on: HCT-116 colon
HCT-15 colon = tested on: HCT-15 colon
HL-60(TB) leukemia = tested on: HL-60(TB) leukemia
HOP-18 NSCLC = tested on: HOP-18 NSCLC
HOP-62 NSCLC = tested on: HOP-62 NSCLC
HOP-92 NSCLC = tested on: HOP-92 NSCLC
HT29 colon = tested on: HT29 colon
IGROV1 ovarian = tested on: IGROV1 ovarian
K-562 leukemia = tested on: K-562 leukemia
KM12 colon = tested on: KM12 colon
KM20L2 colon = tested on: KM20L2 colon
LOX IMVI melanoma = tested on: LOX IMVI melanoma
M19-MEL melanoma = tested on: M19-MEL melanoma
MALME-3M melanoma = tested on: MALME-3M melanoma
MCF7 breast = tested on: MCF7 breast
MOLT-4 leukemia = tested on: MOLT-4 leukemia
NCI-H226 lung = tested on: NCI-H226 lung
NCI-H23 lung = tested on: NCI-H23 lung
NCI-H460 lung = tested on: NCI-H460 lung
NCI-H522 lung = tested on: NCI-H522 lung
NCI/ADR-RES ovarian = tested on: NCI/ADR-RES ovarian
OVCAR-3 ovarian = tested on: OVCAR-3 ovarian
OVCAR-4 ovarian = tested on: OVCAR-4 ovarian
OVCAR-5 ovarian = tested on: OVCAR-5 ovarian
OVCAR-8 ovarian = tested on: OVCAR-8 ovarian
P388 leukemia = tested on: P388 leukemia
P388/ADR leukemia = tested on: P388/ADR leukemia
RPMI-8226 leukemia = tested on: RPMI-8226 leukemia
RXF 393 renal = tested on: RXF 393 renal
SF-268 CNS = tested on: SF-268 CNS
SF-295 CNS = tested on: SF-295 CNS
SF-539 CNS = tested on: SF-539 CNS
SK-MEL-2 melanoma = tested on: SK-MEL-2 melanoma
SK-MEL-28 melanoma = tested on: SK-MEL-28 melanoma
SK-MEL-5 melanoma = tested on: SK-MEL-5 melanoma
SK-OV-3 ovarian = tested on: SK-OV-3 ovarian
SN12C renal = tested on: SN12C renal
SN12K1 renal = tested on: SN12K1 renal
SNB-19 CNS = tested on: SNB-19 CNS
SNB-75 CNS = tested on: SNB-75 CNS
SNB-78 CNS = tested on: SNB-78 CNS
SW-620 colon = tested on: SW-620 colon
U251 CNS = tested on: U251 CNS
UACC-257 melanoma = tested on: UACC-257 melanoma
UACC-62 melanoma = tested on: UACC-62 melanoma
UO-31 renal = tested on: UO-31 renal
XF 498 CNS = tested on: XF 498 CNS
786-0 renal = tested on: 786-0 renal
ACHN renal = tested on: ACHN renal
BT-549 breast = tested on: BT-549 breast
DU-145 prostate = tested on: DU-145 prostate
LXFL 529 NSCLC = tested on: LXFL 529 NSCLC
M14 melanoma = tested on: M14 melanoma
MDA-MB-231 breast = tested on: MDA-MB-231 breast
MDA-MB-435 = tested on: MDA-MB-435
MDA-N = tested on: MDA-N
PC-3 prostate = tested on: PC-3 prostate
RXF-631 renal = tested on: RXF-631 renal
SR leukemia = tested on: SR leukemia
T-47D breast = tested on: T-47D breast
TK-10 renal = tested on: TK-10 renal

**Q.** For `CC1=NCCc2cc3[nH]c4ccccc4c3cc21`, which TGI (A498 renal) is on record?
**A.** 46.1 µM

**Q.** And the TGI (A549 NSCLC)?
**A.** 103 µM

**Q.** And the TGI (CAKI-1 renal)?
**A.** 57.6 µM

**Q.** What about the TGI (CCRF-CEM leukemia) of the same compound?
**A.** 36.9 µM

**Q.** What about the TGI (COLO 205 colon) of the same compound?
**A.** 24.5 µM

**Q.** And the TGI (DLD-1 colon)?
**A.** 73.1 µM

**Q.** And the TGI (DMS 114 small cell lung)?
**A.** 23.4 µM

**Q.** What about the TGI (DMS 273 small cell lung) of the same compound?
**A.** 50.6 µM

**Q.** What about the TGI (EKVX NSCLC) of the same compound?
**A.** 95.8 µM

**Q.** What about the TGI (HCC-2998 colon) of the same compound?
**A.** 53.8 µM

**Q.** And the TGI (HCT-116 colon)?
**A.** 45.5 µM

**Q.** What about the TGI (HCT-15 colon) of the same compound?
**A.** 78.4 µM

**Q.** What about the TGI (HL-60(TB) leukemia) of the same compound?
**A.** 37.6 µM

**Q.** And the TGI (HOP-18 NSCLC)?
**A.** 50 µM

**Q.** And the TGI (HOP-62 NSCLC)?
**A.** 111 µM

**Q.** And the TGI (HOP-92 NSCLC)?
**A.** 5.45 µM

**Q.** And the TGI (HT29 colon)?
**A.** 48.7 µM

**Q.** And the TGI (IGROV1 ovarian)?
**A.** > 85.3 µM

**Q.** What about the TGI (K-562 leukemia) of the same compound?
**A.** 22.9 µM

**Q.** And the TGI (KM12 colon)?
**A.** 78.8 µM

**Q.** And the TGI (KM20L2 colon)?
**A.** 45.7 µM

**Q.** What about the TGI (LOX IMVI melanoma) of the same compound?
**A.** 37.7 µM

**Q.** What about the TGI (M19-MEL melanoma) of the same compound?
**A.** 43.6 µM

**Q.** And the TGI (MALME-3M melanoma)?
**A.** 22.3 µM

**Q.** And the TGI (MCF7 breast)?
**A.** 69.7 µM

**Q.** And the TGI (MOLT-4 leukemia)?
**A.** 34.3 µM

**Q.** And the TGI (NCI-H226 lung)?
**A.** 37.9 µM

**Q.** And the TGI (NCI-H23 lung)?
**A.** 83.8 µM

**Q.** What about the TGI (NCI-H460 lung) of the same compound?
**A.** 37.1 µM

**Q.** And the TGI (NCI-H522 lung)?
**A.** 84.9 µM

**Q.** What about the TGI (NCI/ADR-RES ovarian) of the same compound?
**A.** 83.8 µM

**Q.** What about the TGI (OVCAR-3 ovarian) of the same compound?
**A.** 114 µM

**Q.** What about the TGI (OVCAR-4 ovarian) of the same compound?
**A.** 110 µM

**Q.** And the TGI (OVCAR-5 ovarian)?
**A.** 56.6 µM

**Q.** And the TGI (OVCAR-8 ovarian)?
**A.** > 88.5 µM

**Q.** And the TGI (P388 leukemia)?
**A.** 21.9 µM

**Q.** What about the TGI (P388/ADR leukemia) of the same compound?
**A.** 34.2 µM

**Q.** And the TGI (RPMI-8226 leukemia)?
**A.** 40.3 µM

**Q.** And the TGI (RXF 393 renal)?
**A.** 23.4 µM

**Q.** And the TGI (SF-268 CNS)?
**A.** 77.7 µM

**Q.** And the TGI (SF-295 CNS)?
**A.** 46.8 µM

**Q.** What about the TGI (SF-539 CNS) of the same compound?
**A.** 32 µM

**Q.** What about the TGI (SK-MEL-2 melanoma) of the same compound?
**A.** 29.3 µM

**Q.** And the TGI (SK-MEL-28 melanoma)?
**A.** 24.6 µM

**Q.** What about the TGI (SK-MEL-5 melanoma) of the same compound?
**A.** 28.1 µM

**Q.** What about the TGI (SK-OV-3 ovarian) of the same compound?
**A.** 62.6 µM

**Q.** And the TGI (SN12C renal)?
**A.** 62.9 µM

**Q.** What about the TGI (SN12K1 renal) of the same compound?
**A.** 44.6 µM

**Q.** What about the TGI (SNB-19 CNS) of the same compound?
**A.** 116 µM

**Q.** What about the TGI (SNB-75 CNS) of the same compound?
**A.** 70 µM

**Q.** And the TGI (SNB-78 CNS)?
**A.** 86.9 µM

**Q.** What about the TGI (SW-620 colon) of the same compound?
**A.** 52.5 µM

**Q.** What about the TGI (U251 CNS) of the same compound?
**A.** 79 µM

**Q.** And the TGI (UACC-257 melanoma)?
**A.** 24.6 µM

**Q.** What about the TGI (UACC-62 melanoma) of the same compound?
**A.** 39.8 µM

**Q.** And the TGI (UO-31 renal)?
**A.** 54.9 µM

**Q.** What about the TGI (XF 498 CNS) of the same compound?
**A.** 30.5 µM

**Q.** What does the source list for `Nc1nc(-c2ccccc2)c(Cl)c(-c2cc(Cl)ccc2O)n1`?
**A.** TGI (786-0 renal): 57.8 µM; TGI (A498 renal): > 76.5 µM; TGI (A549 NSCLC): 71 µM; TGI (ACHN renal): 21.5 µM; TGI (BT-549 breast): > 100 µM; TGI (CAKI-1 renal): 47.2 µM; TGI (CCRF-CEM leukemia): > 100 µM; TGI (COLO 205 colon): > 100 µM; TGI (DLD-1 colon): > 100 µM; TGI (DMS 114 small cell lung): 66.6 µM; TGI (DMS 273 small cell lung): 90.9 µM; TGI (DU-145 prostate): > 100 µM; TGI (EKVX NSCLC): > 100 µM; TGI (HCC-2998 colon): > 100 µM; TGI (HCT-116 colon): 27.1 µM; TGI (HCT-15 colon): > 100 µM; TGI (HL-60(TB) leukemia): > 100 µM; TGI (HOP-18 NSCLC): > 94.3 µM; TGI (HOP-62 NSCLC): 20.1 µM; TGI (HOP-92 NSCLC): > 97.3 µM; TGI (HT29 colon): > 100 µM; TGI (IGROV1 ovarian): 54.7 µM; TGI (K-562 leukemia): > 46.4 µM; TGI (KM12 colon): > 87.9 µM; TGI (KM20L2 colon): > 100 µM; TGI (LOX IMVI melanoma): > 59.2 µM; TGI (LXFL 529 NSCLC): > 73.1 µM; TGI (M14 melanoma): > 100 µM; TGI (M19-MEL melanoma): > 100 µM; TGI (MALME-3M melanoma): > 100 µM; TGI (MCF7 breast): > 100 µM; TGI (MDA-MB-231 breast): > 100 µM; TGI (MDA-MB-435): > 100 µM; TGI (MDA-N): > 100 µM; TGI (MOLT-4 leukemia): > 100 µM; TGI (NCI-H226 lung): 61.3 µM; TGI (NCI-H23 lung): 67.2 µM; TGI (NCI-H460 lung): 99.3 µM; TGI (NCI-H522 lung): > 62.9 µM; TGI (OVCAR-3 ovarian): 24.2 µM; TGI (OVCAR-4 ovarian): 66.4 µM; TGI (OVCAR-5 ovarian): > 100 µM; TGI (OVCAR-8 ovarian): 33.8 µM; TGI (PC-3 prostate): > 100 µM; TGI (RPMI-8226 leukemia): > 100 µM; TGI (RXF 393 renal): 41.9 µM; TGI (RXF-631 renal): > 100 µM; TGI (SF-268 CNS): > 83.1 µM; TGI (SF-295 CNS): > 94.3 µM; TGI (SF-539 CNS): 66.5 µM; TGI (SK-MEL-2 melanoma): 99.8 µM; TGI (SK-MEL-28 melanoma): > 100 µM; TGI (SK-MEL-5 melanoma): 59.6 µM; TGI (SK-OV-3 ovarian): 49.3 µM; TGI (SN12C renal): 87.5 µM; TGI (SNB-19 CNS): 47 µM; TGI (SNB-75 CNS): 43.9 µM; TGI (SNB-78 CNS): > 82.7 µM; TGI (SR leukemia): > 100 µM; TGI (SW-620 colon): > 100 µM; TGI (T-47D breast): 36.4 µM; TGI (TK-10 renal): 42.6 µM; TGI (U251 CNS): 45.1 µM; TGI (UACC-257 melanoma): > 100 µM; TGI (UACC-62 melanoma): > 100 µM; TGI (UO-31 renal): 46.6 µM; TGI (XF 498 CNS): 47.5 µM

From PubChem BioAssay (NCI)
